For this assay, the system named is 521955-158-R2-J5-PDC complex spheroid viability. The assay is described as follows: Anticancer human tumor 521955-158-R2-J5-PDC patient-derived pancreatic carcinoma cell line growth inhibition [GQUAD]. Particulars: for viability, T/C: stronger effect = lower value. The source says:
DNA G-quadruplex Stabilizer Agents in Combinations in Complex Spheroids
A high-throughput screen of multi-cell type tumor spheroids was designed to identify active combinations of DNA G-quadruplex stabilizer agents and targeted small molecules. Complex spheroids include a stromal component modeled by human endothelial cells (HUVEC) and fibroblasts modeled by human mesenchymal stem cells (MSCs). The concentration ranges selected for each drug and investigational agent were based upon clinically achievable concentrations if the clinical Cmax of the agent was known.
Compounds. The drugs and investigational agents: pidnarulex (CX-5461; NSC782164), APTO-253 (NSC789042), BRACO-19 (NSC847499), peposertib (NSC802822), ceralasertib (NSC780249), elimusertib (NSC800525), camonsertib (NSC841442), AZD-1390 (NSC803789), olaparib (NSC753686), talazoparib (NSC767125), ART-558 (NSC835418), sotorasib (NSC818433), MRTX-1133 (NSC836407), SN-38 (NSC673596), topotecan (NSC609699), etoposide (NSC141540), doxorubicin (NSC123127), gemcitabine (NSC613327), 5-fluorouracil (NSC19893), paclitaxel (NSC125973), vemurafenib (NSC761431), panobinostat (NSC761190), R-306465 (JNJ-16241199; NSC773264), adavosertib (NSC754352), TP-3654 (NSC805149), carboplatin (NSC241240), KSQ-4279 (NSC840948), and staurosporine (NSC755774) were obtained from the National Cancer Institute (NCI) Developmental Therapeutics Program Chemical Repository (34). The FDA-approved anticancer drug set is available from the NCI Developmental Therapeutics Program. […] The stock solutions were prepared in dimethyl sulfoxide (DMSO, Sigma-Aldrich, St. Louis, MO, cat. D2650) at 800-fold the tested concentration and stored at -70 degrees C prior to their use. All drugs and investigational agents were tested over a range starting from a high concentration at or near the clinical Cmax and decreasing in half-log increments. If the clinical Cmax for an agent had not been determined, the highest concentration tested was 10 microM.
2.3 Cell Culture. All cells were maintained in an incubator at 37 degrees C and 5% CO2 with 95% humidity. The PDC lines were cultured according to standard operating procedures established by the NCI PDMR. All PDCs were thawed and cultured in Matrigel-coated flasks prepared with a working solution of 1X Ham's F-12 nutrient mix, without supplementation (Invitrogen, cat. 11765054), 100 U/mL penicillin-streptomycin (Invitrogen, cat. 15140122), and 2.5% Matrigel (Corning Inc., cat. 354248) for the first three passages. The 857933-349-R-J2-PDC line was cultured in 6C/Colon 1B media, which includes advanced DMEM/F-12 (Thermo Fisher Scientific, cat. 12634028), 10 mM HEPES (Thermo Fisher Scientific, cat. 15630080), 1X GlutaMAX supplement (Thermo Fisher Scientific, cat. 35050061), 0.1 mg/mL primocin (InvivoGen, cat. ant-pm-2), 10% defined fetal bovine serum, heat inactivated (HyClone Laboratories Inc., cat. SH30070.03HI), 50% L-WRN conditioned media (ATCC, cat. CRL-3276), 1.25 mM N-Acetyl-L-cysteine (Sigma-Aldrich, cat. A9165), 10 mM nicotinamide (Sigma-Aldrich, cat. N0636), 1X B-27 supplement (Thermo Fisher Scientific, cat. 17504044), 1X N-2 supplement (Thermo Fisher Scientific, cat. 17502048), 10 microM Y-27632 dihydrochloride (Tocris Bioscience, cat. 1254), and 50 ng/mL human EGF recombinant protein (Thermo Fisher Scientific, cat. PHG0311). The 485176-168-R4-J1-PDC line was cultured in Panc media, which includes all 6C/Colon 1B media components plus 100 ng/mL human FGF-10 (Thermo Fisher Scientific, cat. 100-26), 500 nM SB-431542 (Selleckchem, cat. S1067), and gastrin (Tocris, cat. 3006).
[…]

Structures are written as SMILES. “And” between values parts separate entries of the source, which are not always exact repeats. Equal entries are not always repeated. Bounds are passed on as bounds.
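Also: spheroids exposed to agents for one week before reading.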
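For viability, T/C in this document: 100% = DMSO vehicle control viability.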

Turning to `CC1COCCN1c1cc(C2(S(C)(=N)=O)CC2)nc(-c2ccnc3[nH]ccc23)n1` (stereo unspecified) + CN(C)c1ccc(Nc2c3ccc(NC(=O)CCN4CCCC4)cc3nc3cc(NC(=O)CCN4CCCC4)ccc23)cc1, the IC50 reads like this: (curve of first compound, second compound 0.0316 µM) 879 nM; (curve of first compound, second compound 0.1 µM) 832 nM; (curve of first compound, second compound 0.316 µM) 1020 nM; (curve of first compound, second compound 1 µM) 850 nM; (curve of first compound, second compound 3.16 µM) 1330 nM; (curve of first compound, second compound 10 µM) 1380 nM. For the same molecule, the viability, T/C runs as follows: (second compound 0.0316 µM, first compound 0.0316 µM) 99.7%; (second compound 0.0316 µM, first compound 0.1 µM) 93.1%; (second compound 0.0316 µM, first compound 0.316 µM) 98%; (second compound 0.0316 µM, first compound 1 µM) 44.1%; (second compound 0.0316 µM, first compound 3.16 µM) 16.2%; (second compound 0.0316 µM, first compound 10 µM) 17.2%. Also, the viability, T/C was 104% (second compound 0.1 µM, first compound 0.0316 µM); 112% (second compound 0.1 µM, first compound 0.1 µM); 117% (second compound 0.1 µM, first compound 0.316 µM); 38.4% (second compound 0.1 µM, first compound 1 µM); 17.5% (second compound 0.1 µM, first compound 3.16 µM); 16.8% (second compound 0.1 µM, first compound 10 µM). The viability, T/C by setting is: (second compound 0.316 µM, first compound 0.0316 µM) 97.1%; (second compound 0.316 µM, first compound 0.1 µM) 99.2%; (second compound 0.316 µM, first compound 0.316 µM) 99%; (second compound 0.316 µM, first compound 1 µM) 50.6%; (second compound 0.316 µM, first compound 3.16 µM) 12.9%; (second compound 0.316 µM, first compound 10 µM) 13.7%. Moreover, the viability, T/C reads like this: (second compound 1 µM, first compound 0.0316 µM) 99.3%; (second compound 1 µM, first compound 0.1 µM) 93.8%; (second compound 1 µM, first compound 0.316 µM) 91.5%; (second compound 1 µM, first compound 1 µM) 43.3%; (second compound 1 µM, first compound 3.16 µM) 14.8%; (second compound 1 µM, first compound 10 µM) 14.5%. The viability, T/C (second compound 3.16 µM, first compound 0.0316 µM) is 86.4%; the viability, T/C (second compound 3.16 µM, first compound 0.1 µM) is 78.4%; the viability, T/C (second compound 3.16 µM, first compound 0.316 µM) is 89.2%; the viability, T/C (second compound 3.16 µM, first compound 1 µM) is 61.5%; the viability, T/C (second compound 3.16 µM, first compound 3.16 µM) was 15.8%; the viability, T/C (second compound 3.16 µM, first compound 10 µM) is 14.8%. The viability, T/C is 61% (second compound 10 µM, first compound 0.0316 µM); 76.7% (second compound 10 µM, first compound 0.1 µM); 69.1% (second compound 10 µM, first compound 0.316 µM); 58.9% (second compound 10 µM, first compound 1 µM); 26.9% (second compound 10 µM, first compound 3.16 µM); 20.5% (second compound 10 µM, first compound 10 µM).
`CC(=O)O[C@H]1C(=O)[C@@]2(C)[C@H]([C@H](OC(=O)c3ccccc3)[C@]3(O)C[C@H](OC(=O)[C@H](O)[C@@H](NC(=O)c4ccccc4)c4ccccc4)C(C)=C1C3(C)C)[C@]1(OC(C)=O)CO[C@@H]1C[C@@H]2O`: the viability, T/C was 55.7% and 44.9% and 22.1% (compound 0.0316 µM); 41.9% and 46.4% and 14.2% (compound 0.1 µM); 27.7% and 32.3% and 8.41% (compound 0.316 µM); 33.1% and 30.1% and 9.52% (compound 1 µM); 22.9% and 28.9% and 11.5% (compound 3.16 µM); 29.9% and 31.3% and 16% (compound 10 µM). The IC50 (curve of compound) was 50.9 nM and < 31.6 nM.
As for `CN(C)c1ccc(Nc2c3ccc(NC(=O)CCN4CCCC4)cc3nc3cc(NC(=O)CCN4CCCC4)ccc23)cc1`, the viability, T/C (compound 0.0316 µM) was 107% [middle of 12 runs]; the viability, T/C (compound 0.1 µM) is 103% [middle of 12 runs]; the viability, T/C (compound 0.316 µM) is 98% [middle of 12 runs]; the viability, T/C (compound 1 µM) was 89.4% [middle of 12 runs]; the viability, T/C (compound 3.16 µM) was 82.5% [middle of 12 runs]; the viability, T/C (compound 10 µM) was 72.5% [middle of 12 runs]. Moreover, the IC50 (compound alone, run of 04/22/2024) is above 10000 nM.
